From ChEMBL document CHEMBL4311992, “Discovery of 3-(((9H-purin-6-yl)amino)methyl)-4,6-dimethylpyridin-2(1H)-one derivatives as novel tubulin polymerization inhibitors for treatment of cancer” (Eur J Med Chem, 2019) come the findings set out here.

Calls of active or inactive are those of the source. No cut-off for these calls is given here.

In one test the test system is HCT-116. Briefly: Inhibition of colony formation in human HCT116 cells at 50 nM after 14 days by crystal violet staining-based microscopic analysis. Conditions: HCT-116, 336 h. The test is classed as functional.
Test [1] addresses TGF-beta receptor type-2 (Homo sapiens) (UniProt P37173). Briefly: Inhibition of human TGFBR2 (188 to end residues) using myelin basic protein as substrate measured after 120 mins in presence of [gamma33P]ATP by scintillation counting method. Also noted: scale not given: the % may be the effect or the level left.
The target in test [2] is Mitogen-activated protein kinase 13 (Homo sapiens) (UniProt O15264). Briefly: Inhibition of recombinant full-length human SAPK4 assessed as residual activity at 10 uM using myelin basic protein as substrate measured after 40 mins in presence of [gamma33P]ATP by scintillation counting method.
Test [3] has as its target Serine/threonine-protein kinase D3 (Homo sapiens) (UniProt O94806). Briefly: Inhibition of recombinant full-length human PKD3 assessed as residual activity at 10 uM using KKLRRTLSVA as substrate measured after 40 mins in presence of [gamma33P]ATP by scintillation counting method.
In test [4] the target is Protein kinase C gamma type (Homo sapiens) (UniProt P05129). As to the kind of experiment: Inhibition of recombinant full-length human PKCgamma assessed as residual activity at 10 uM using histone H1 as substrate measured after 40 mins in presence of [gamma33P]ATP by scintillation counting method.
Test [5] addresses Serine/threonine-protein kinase PAK 4 (Homo sapiens) (UniProt O96013). As to the kind of experiment: Inhibition of recombinant human PAK4 (295 to end residues) assessed as residual activity at 10 uM using myelin basic protein as substrate measured after 40 mins in presence of [gamma33P]ATP by scintillation counting method.
Test [6] concerns the target Serine/threonine-protein kinase Nek2 (Homo sapiens) (UniProt P51955). As to the kind of experiment: Inhibition of recombinant full-length human NEK2 assessed as residual activity at 10 uM using myelin basic protein as substrate measured after 40 mins in presence of [gamma33P]ATP by scintillation counting method.
Test [7] concerns the target Myosin-IIIb (Homo sapiens) (UniProt Q8WXR4). Briefly: Inhibition of recombinant full-length human MYO3B (1 to 326 residues) assessed as residual activity at 10 uM using RLGRDKYKTLRQIRQ as substrate measured after 40 mins in presence of [gamma33P]ATP by scintillation counting method.
Test [8] has as its system Hepatocyte growth factor receptor (Homo sapiens), P08581 [M1250T]. As to the kind of experiment: Inhibition of recombinant human MET A1209G/V1290L/M1268T mutant (974 to end residues) assessed as residual activity at 10 uM using KKKGQEEEYVFIE as substrate measured after 40 mins in presence of [gamma33P]ATP by scintillation counting method.
Test [9] has as its system Hepatocyte growth factor receptor (Homo sapiens), P08581 [D1228N]. As to the kind of experiment: Inhibition of recombinant human MET A1209G/V1290L/D1246N mutant (974 to end residues) assessed as residual activity at 10 uM using KKKGQEEEYVFIE as substrate measured after 40 mins in presence of [gamma33P]ATP by scintillation counting method.
For a further test, the species on record is Homo sapiens. As to the kind of experiment: Inhibition of recombinant human MAPKAPK2 A399G mutant (46 to end residues) assessed as residual activity at 10 uM using KKLNRTLSVA as substrate measured after 40 mins in presence of [gamma33P]ATP by scintillation counting method.
The species entered for the next test is Mus musculus. As to the kind of experiment: Inhibition of recombinant full-length mouse PI3K p110alpha/p65alpha (1 to 571 residues) assessed as residual activity at 10 uM using phosphatidylinositol-4, 5-bisphosphate as substrate measured after 40 mins by HTRF assay.
The target of test [10] is Serine/threonine-protein kinase BRSK1 (Homo sapiens) (UniProt Q8TDC3). As to the kind of experiment: Inhibition of recombinant human BrSK1 (2 to end residues) assessed as residual activity at 10 uM using KKKVSRSGLYRSPSMPENLNRPR as substrate measured after 120 mins in presence of [gamma33P]ATP by scintillation counting method.
Serine/threonine-protein kinase BRSK1 (Homo sapiens), sequence (Q8TDC3 whole entry, the tested form may be a part): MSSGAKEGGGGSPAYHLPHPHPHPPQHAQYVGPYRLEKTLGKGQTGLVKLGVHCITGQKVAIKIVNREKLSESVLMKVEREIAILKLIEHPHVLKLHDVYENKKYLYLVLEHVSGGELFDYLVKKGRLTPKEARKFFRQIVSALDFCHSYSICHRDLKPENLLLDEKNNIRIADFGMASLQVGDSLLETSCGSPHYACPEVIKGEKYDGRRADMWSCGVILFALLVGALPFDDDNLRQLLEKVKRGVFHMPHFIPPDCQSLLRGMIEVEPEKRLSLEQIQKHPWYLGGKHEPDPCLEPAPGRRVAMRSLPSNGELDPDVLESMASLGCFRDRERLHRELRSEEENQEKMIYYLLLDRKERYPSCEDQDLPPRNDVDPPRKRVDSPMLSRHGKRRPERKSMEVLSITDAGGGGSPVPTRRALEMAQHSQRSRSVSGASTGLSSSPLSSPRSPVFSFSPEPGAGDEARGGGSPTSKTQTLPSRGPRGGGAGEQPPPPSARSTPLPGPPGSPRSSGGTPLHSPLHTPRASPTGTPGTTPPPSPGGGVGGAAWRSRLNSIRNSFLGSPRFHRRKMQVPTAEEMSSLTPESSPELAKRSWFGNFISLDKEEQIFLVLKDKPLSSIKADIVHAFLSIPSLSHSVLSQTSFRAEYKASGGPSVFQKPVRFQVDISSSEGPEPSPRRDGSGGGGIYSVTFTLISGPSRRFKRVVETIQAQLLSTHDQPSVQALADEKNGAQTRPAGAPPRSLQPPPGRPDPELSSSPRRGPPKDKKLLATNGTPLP
For test [11], the target named is Insulin receptor (Homo sapiens) (UniProt P06213). Briefly: Inhibition of recombinant human IR (1005 to 1310 residues) assessed as residual activity at 10 uM using KKSRGDYMTMQIG as substrate measured after 40 mins in presence of [gamma33P]ATP by scintillation counting method.
Insulin receptor (Homo sapiens), sequence (P06213 28-758 limits assumed): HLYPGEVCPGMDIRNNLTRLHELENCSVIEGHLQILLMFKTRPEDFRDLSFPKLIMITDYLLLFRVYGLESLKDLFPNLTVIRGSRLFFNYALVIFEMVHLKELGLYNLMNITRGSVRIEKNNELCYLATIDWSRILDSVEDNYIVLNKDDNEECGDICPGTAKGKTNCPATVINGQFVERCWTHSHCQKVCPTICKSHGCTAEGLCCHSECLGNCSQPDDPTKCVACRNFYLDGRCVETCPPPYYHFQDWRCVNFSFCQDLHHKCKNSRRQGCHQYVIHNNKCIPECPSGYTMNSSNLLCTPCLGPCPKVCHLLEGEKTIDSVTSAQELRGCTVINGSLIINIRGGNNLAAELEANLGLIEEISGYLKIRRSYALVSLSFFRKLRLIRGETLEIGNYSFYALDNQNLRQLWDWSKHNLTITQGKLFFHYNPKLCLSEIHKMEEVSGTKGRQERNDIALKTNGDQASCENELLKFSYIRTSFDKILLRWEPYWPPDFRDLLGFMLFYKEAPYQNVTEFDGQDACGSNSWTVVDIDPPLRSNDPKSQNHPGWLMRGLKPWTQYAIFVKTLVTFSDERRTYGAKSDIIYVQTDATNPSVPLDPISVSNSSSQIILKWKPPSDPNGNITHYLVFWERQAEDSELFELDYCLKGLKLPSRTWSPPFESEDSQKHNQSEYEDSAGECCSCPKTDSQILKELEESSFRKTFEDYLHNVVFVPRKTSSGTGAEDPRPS
Insulin receptor (Homo sapiens), sequence (P06213 763-1382 limits assumed): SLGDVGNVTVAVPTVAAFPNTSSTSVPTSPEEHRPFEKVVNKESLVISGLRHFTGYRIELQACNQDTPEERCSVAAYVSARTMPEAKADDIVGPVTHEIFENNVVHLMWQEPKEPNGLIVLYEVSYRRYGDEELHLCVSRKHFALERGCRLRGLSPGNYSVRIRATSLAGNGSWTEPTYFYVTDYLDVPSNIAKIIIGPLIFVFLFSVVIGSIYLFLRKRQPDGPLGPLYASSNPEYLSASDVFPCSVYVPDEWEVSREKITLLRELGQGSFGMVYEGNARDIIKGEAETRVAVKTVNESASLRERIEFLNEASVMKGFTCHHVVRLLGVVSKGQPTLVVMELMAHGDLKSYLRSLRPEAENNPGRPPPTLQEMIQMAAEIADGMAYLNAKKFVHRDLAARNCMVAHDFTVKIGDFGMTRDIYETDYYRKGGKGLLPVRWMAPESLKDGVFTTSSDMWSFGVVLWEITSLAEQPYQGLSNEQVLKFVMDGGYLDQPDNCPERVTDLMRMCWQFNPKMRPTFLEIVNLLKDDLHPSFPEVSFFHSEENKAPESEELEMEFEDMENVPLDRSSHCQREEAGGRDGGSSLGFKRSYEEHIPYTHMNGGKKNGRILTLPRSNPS
The target of test [12] is Ephrin type-A receptor 8 (Homo sapiens) (UniProt P29322). As to the kind of experiment: Inhibition of recombinant human EphA8 (615 to 911 residues) assessed as residual activity at 10 uM using KTFCGTPEYLAPEVRREPRILSEEEQEMFRDFDYIADWC as substrate measured after 40 mins in presence of [gamma33P]ATP by scintillation counting method.
Ephrin type-A receptor 8 (Homo sapiens), sequence (P29322 whole entry, the tested form may be a part): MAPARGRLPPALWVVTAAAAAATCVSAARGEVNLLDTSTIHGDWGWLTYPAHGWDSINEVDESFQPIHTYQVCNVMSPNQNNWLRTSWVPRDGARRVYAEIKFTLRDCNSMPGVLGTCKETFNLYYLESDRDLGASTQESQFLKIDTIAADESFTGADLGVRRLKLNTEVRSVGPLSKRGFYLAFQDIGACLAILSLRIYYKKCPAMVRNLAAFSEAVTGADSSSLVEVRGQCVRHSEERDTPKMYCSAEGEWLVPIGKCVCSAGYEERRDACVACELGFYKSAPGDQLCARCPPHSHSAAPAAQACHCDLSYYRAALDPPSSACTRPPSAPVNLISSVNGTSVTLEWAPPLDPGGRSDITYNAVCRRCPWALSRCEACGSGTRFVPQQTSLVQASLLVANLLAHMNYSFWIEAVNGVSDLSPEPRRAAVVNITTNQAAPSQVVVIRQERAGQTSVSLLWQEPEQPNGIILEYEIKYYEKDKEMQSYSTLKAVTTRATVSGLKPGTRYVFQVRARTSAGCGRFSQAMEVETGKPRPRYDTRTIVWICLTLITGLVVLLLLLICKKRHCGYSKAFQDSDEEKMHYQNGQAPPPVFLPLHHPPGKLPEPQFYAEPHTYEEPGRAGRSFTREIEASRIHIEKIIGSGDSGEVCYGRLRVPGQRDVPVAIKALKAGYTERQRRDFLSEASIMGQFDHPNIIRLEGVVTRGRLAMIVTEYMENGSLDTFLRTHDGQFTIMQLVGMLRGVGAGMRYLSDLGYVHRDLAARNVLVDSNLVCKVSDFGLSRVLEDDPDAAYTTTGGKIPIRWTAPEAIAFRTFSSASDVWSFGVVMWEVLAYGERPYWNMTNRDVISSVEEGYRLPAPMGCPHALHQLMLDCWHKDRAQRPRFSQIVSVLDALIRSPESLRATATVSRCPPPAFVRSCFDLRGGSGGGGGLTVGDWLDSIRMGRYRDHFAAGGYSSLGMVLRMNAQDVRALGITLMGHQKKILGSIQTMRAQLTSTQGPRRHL
The next test has as its target Tubulin (Homo sapiens) (UniProt P68371+Q9H4B7+P0DPH7+P68366+Q13509+Q71U36+P04350+Q3ZCM7+P07437+P68363+Q9BQE3+Q6PEY2+Q13885+Q9BVA1+Q9BUF5). Briefly: Disruption of microtubule network in human SW620 cells assessed as microtubule condensation at 50 nM incubated for 18 hrs by FITC/DAPI staining-based confocal microscopic analysis. In kind it is cell-based.
For test [13], the target named is AP2-associated protein kinase 1 (Homo sapiens) (UniProt Q2M2I8). Briefly: Inhibition of human AAK1 assessed as residual activity at 10 uM using peptide substrate measured after 120 mins in presence of [gamma33P]ATP by scintillation counting method.
Test [14] concerns the target Mitogen-activated protein kinase kinase kinase 9 (Homo sapiens) (UniProt P80192). As to the kind of experiment: Inhibition of recombinant human MLK1 (134 to 414 residues) assessed as residual activity at 10 uM using casein as substrate measured after 40 mins in presence of [gamma33P]ATP by scintillation counting method.
Test [15] has as its target SRSF protein kinase 3 (Homo sapiens) (UniProt Q9UPE1). As to the kind of experiment: Inhibition of recombinant full-length human MSSK1 assessed as residual activity at 10 uM using ERMRPRKRQGSVRRRV as substrate measured after 40 mins in presence of [gamma33P]ATP by scintillation counting method.
Test [16] addresses Serine/threonine-protein kinase mTOR (Homo sapiens) (UniProt P42345). Briefly: Inhibition of recombinant full-length human mTOR assessed as residual activity at 10 uM measured after 40 mins in presence of [gamma33P]ATP by scintillation counting method.
For test [17], the target named is cAMP-dependent protein kinase catalytic subunit alpha (Homo sapiens) (UniProt P17612). As to the kind of experiment: Inhibition of recombinant full-length human PKA assessed as residual activity at 10 uM using Kemptide as substrate measured after 40 mins in presence of [gamma33P]ATP by scintillation counting method.
Test [18] addresses Serine/threonine-protein kinase TAO2 (Homo sapiens) (UniProt Q9UL54). Briefly: Inhibition of human TAO2 (1 to 320 residues) using myelin basic protein as substrate measured after 40 mins in presence of [gamma33P]ATP by scintillation counting method. Also noted: scale not given: the % may be the effect or the level left.
Test [19] concerns the target Tyrosine-protein kinase ZAP-70 (Homo sapiens) (UniProt P43403). As to the kind of experiment: Inhibition of recombinant full-length human ZAP70 assessed as residual activity at 10 uM using poly(Glu, Tyr) 4:1 as substrate measured after 40 mins in presence of [gamma33P]ATP by scintillation counting method.

Myosin-IIIb (Homo sapiens), sequence (Q8WXR4 whole entry, the tested form may be a part): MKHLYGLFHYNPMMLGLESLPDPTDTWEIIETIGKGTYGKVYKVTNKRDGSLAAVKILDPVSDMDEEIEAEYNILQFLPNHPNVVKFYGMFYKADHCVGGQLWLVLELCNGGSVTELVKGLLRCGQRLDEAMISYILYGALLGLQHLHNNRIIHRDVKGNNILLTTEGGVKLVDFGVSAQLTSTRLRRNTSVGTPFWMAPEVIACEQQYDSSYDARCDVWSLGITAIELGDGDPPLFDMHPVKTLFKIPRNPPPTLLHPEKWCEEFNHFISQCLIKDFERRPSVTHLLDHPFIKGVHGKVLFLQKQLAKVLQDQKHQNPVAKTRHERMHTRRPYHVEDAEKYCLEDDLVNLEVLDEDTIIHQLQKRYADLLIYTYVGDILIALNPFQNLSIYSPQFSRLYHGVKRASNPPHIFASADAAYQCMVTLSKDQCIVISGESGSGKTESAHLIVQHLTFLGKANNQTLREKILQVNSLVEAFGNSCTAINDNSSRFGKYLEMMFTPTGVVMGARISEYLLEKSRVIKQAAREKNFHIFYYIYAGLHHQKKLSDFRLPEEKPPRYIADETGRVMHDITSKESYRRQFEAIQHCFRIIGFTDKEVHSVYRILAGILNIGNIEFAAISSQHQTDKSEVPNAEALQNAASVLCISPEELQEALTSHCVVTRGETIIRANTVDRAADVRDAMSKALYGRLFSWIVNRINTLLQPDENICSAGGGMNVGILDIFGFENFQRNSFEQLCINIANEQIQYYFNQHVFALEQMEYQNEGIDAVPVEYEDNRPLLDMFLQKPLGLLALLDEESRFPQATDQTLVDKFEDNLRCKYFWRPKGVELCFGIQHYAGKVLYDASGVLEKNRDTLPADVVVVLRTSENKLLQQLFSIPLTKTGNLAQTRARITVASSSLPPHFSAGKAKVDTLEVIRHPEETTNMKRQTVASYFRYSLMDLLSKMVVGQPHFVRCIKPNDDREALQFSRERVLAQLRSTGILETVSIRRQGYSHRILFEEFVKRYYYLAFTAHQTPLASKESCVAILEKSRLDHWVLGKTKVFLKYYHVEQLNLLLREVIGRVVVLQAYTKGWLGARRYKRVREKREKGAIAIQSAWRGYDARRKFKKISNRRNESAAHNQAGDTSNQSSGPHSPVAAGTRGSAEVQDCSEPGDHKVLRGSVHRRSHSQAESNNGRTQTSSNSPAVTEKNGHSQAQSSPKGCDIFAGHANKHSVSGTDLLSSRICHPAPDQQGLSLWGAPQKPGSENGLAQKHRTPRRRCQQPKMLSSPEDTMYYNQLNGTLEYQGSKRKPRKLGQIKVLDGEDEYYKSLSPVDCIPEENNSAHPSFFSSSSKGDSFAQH
Tyrosine-protein kinase ZAP-70 (Homo sapiens), sequence (P43403 whole entry): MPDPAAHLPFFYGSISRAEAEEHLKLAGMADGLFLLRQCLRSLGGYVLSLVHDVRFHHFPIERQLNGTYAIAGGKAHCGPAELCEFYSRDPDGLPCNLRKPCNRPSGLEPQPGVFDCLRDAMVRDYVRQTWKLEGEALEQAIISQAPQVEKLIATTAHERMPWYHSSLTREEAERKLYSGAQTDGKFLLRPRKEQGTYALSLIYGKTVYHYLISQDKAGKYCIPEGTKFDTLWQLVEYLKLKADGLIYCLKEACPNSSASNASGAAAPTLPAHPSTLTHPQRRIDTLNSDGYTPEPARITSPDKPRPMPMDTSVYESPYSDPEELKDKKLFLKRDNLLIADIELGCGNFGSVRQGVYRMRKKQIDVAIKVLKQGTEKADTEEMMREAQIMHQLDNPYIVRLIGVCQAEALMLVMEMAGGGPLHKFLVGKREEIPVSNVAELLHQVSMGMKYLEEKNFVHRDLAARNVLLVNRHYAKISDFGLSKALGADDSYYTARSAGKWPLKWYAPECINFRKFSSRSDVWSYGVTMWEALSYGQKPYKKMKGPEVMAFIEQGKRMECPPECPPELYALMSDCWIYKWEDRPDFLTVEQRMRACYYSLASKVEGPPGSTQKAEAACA

A word on the inhibition: it is how much of the control response was suppressed. Regarding `Cc1cc(C)c(CNc2nc(Cl)nc3c2ncn3C2CCCC2)c(=O)[nH]1`, in the test on HCT-116, the inhibition at 0.05 µM came out at 100%. Further, the Activity is 71% in test [1]; 96.5% in test [2]; 106% in test [3]; 108% in [4]; 106% in test [5]; 101% in test [6]. Further, the Activity amounted to 111% in [7]; 105% in test [8]; 112% in [9]; 124% in the test listed under Homo sapiens; 104% in the test filed under Mus musculus; 140% in test [10]. In addition, the Activity in test [11] was 116%; in test [12] it was 97%; in test [13], 105%; in test [14], 104%; in test [15], 130%; in test [16] it was 78.5%. Besides, the Activity in [17] amounted to 91%; in [18] it was 104%; in test [19], 95.5%. Moreover, at Tubulin (Homo sapiens), the outcome was Active.
